This note sets out measurements from US20240368049A1, “ENHANCED PHYTOREMEDIATION FROM BIOAVAILABILITY OF PER- AND POLYFLUOROALKYL SUBSTANCES IN CONTAMINATED SOIL” (The Research Foundation for the State University of New York, priority 2023, published 2024).

Molecules are shown by their SMILES.

Data set [1] is described as follows: SPLP (EPA method 1312) leachability of PFAS in biosolids amended soil. The data set is classed as physicochemical. The note with it: for percentage of SPLP leachable PFAS in biosolids amended soil: without a sorbent, Day-80, pH 4.2. The method, then:
PFAS in the freeze-dried timothy-grass shoots were extracted by MTBE-NaOH according to a previously developed method. Before extraction, each sample for extraction was spiked with 10 ng of 13C2-PFHxA as the surrogate for determining the extraction efficiency. EPA method 1312 (Synthetic Precipitation Leaching Procedure, SPLP) was performed on the biosolids amended soil after drying to determine the leachability of PFAS. Briefly, 20 mL of H2SO4/HNO3 reagent (60/40 wt/wt.) at pH=4.2 were added to the soil sample. The soil with the H2SO4/HNO3 reagent was then vortexed for 30s and shaken on an end over end mixer overnight. After centrifugation at 3500 g for 30 min, the supernatant was collected and subject to solid phase extraction (SPE) using HyperSep C18 cartridges (Thermo Scientific, Waltham, MA). The SPLP leachable PFAS on the C18 cartridges were eluted with 2 mL of methanol, followed by 2 mL of 0.1% NH40H amended methanol. The SPLP leachable PFAS in clean soil without biosolids amendment were analyzed as well. PFAS in the final plant extracts and SPLP leachates were quantified using a 1290 Infinity II LC system coupled with a 6470 Triple Quad Mass Spectrometer (LC-MS/MS, Agilent Technologies, Santa Clara, CA, USA).
FIG. 3 is a series of graphs 40 of percentages of leachable PFAS in biosolids-amended soil treated by different sorbents on Day-80 (n=3). Different letters represent significant differences among the treatments (p<0.05). […] Without a sorbent, almost 100% of leaching of PFHxA 42, PFHpA 44 and PFOA 46 was observed. Similarly to PFAS uptake by the shoots, a chain length effect was visible: the shorter the carbon chain of PFAS, the higher the leachability. […] Compared to PFAS concentrations in the shoots (FIG. 1), there was no positive correlation between acidic water leachable PFAS and the extent of shoot uptake for treatment with biochar at both doses and RemBind at the dose of 0.2%. Thus, results from SPLP at pH=4.2 for sites east of the Mississippi River may not be able to predict bioavailable PFAS to the studied grass. The SPLP is an established and widely adopted EPA method for investigating leaching of organic contaminants in soil. One should note that the acidic water used in the leaching procedure may actually decrease PFAS leaching due to the acidic nature of PFAAs. But since the focus here was to evaluate the effect of different sorbents toward stabilizing PFAS in soil amended by biosolids, the SPLP served our purpose well.

The subject of data set [2] is timothy-grass (Phleum pratense). The data set is described as follows: chlorophyll content of timothy-grass shoots. The conditions noted are these: mobilization treatment with SDS. It is filed as in vivo. The method, then: Timothy-grass seeds were purchased from OrOlam LLC (South Miami, FL). One gram of seeds was sown evenly in each tank containing the prepared biosolids amended soil. Enough water was then added to each tank to reach 100% of field capacity. The plants were cultivated in a greenhouse and watered every day. The timothy-grass started germinating on the 5th day after sowing. On Day-40 after seed germination, the above-ground shoots of the grass in each tank were cut and rinsed thoroughly using deionized water. Around 1 g of the plant tissues from each treatment was used for chlorophyll extraction and quantification. The remaining plant shoots were freeze-dried at −37° C. for 48 h and subject to PFAS extraction and analysis. The plants after cutting were kept under the same growth condition. On Day-80 after seed germination or day-40 after the first cut, the plant shoots were removed again and subject to chlorophyll and PFAS analysis. […]
On Day-40 and Day-80 after seed germination, 100 mg of fresh grass leaves were collected and used to quantify chlorophyll content. […] After 48 h, the chlorophyll concentration in the solvent was determined using a UV-Vis spectrophotometer (GENESYS 10S, Thermo Fisher Scientific, altham, MA, USA). The absorbance was read at 664 and 647 nm and used to calculate chlorophyll a and b and total chlorophyll content according to these equations: […]

For data set [3] the test system is unchanged. The data set can be described thus: uptake of PFAS by timothy-grass shoots grown in biosolids-amended soil treated by a sorbent or SDS. The data set is classed as in vivo. From the text: The method uses the addition of a mobilizing reagent, at a predetermined dose as described herein, to amend the soil around a root system of one or more plants. The supplementing of the amended soil with a stabilizing reagent at a predetermined dose, as also defined below. In one embodiment, the preparation of biosolids amended soil uses a sandy loam soil used in this study (pH=7.56), which was collected from a local farm in Albany County, New York. The soil was passed through a 2-mm sieve before use. The contents of natural organic matter and total organic carbon of the sieved soil were 4.82±0.12% and 2.44±0.45%, respectively. The sieved soil was mixed with vermiculite in a 1:1 vol ratio for increasing water retention of the soil and improving soil aeration. Then, the processed soil for plant cultivation was distributed to 7-quart polypropylene containers (14.375″L×8.25″W×6″H). Each container had 1.3 kg of dry soil.
The biosolids after anaerobic digestion of sludge were collected from a nearby wastewater treatment plant close to University at Albany. The total solid and total organic carbon of the biosolids were 24.16±0.21% and 28.64±0.28%, respectively. […]
Timothy-grass seeds were purchased from OrOlam LLC (South Miami, FL). […] Around 1 g of the plant tissues from each treatment was used for chlorophyll extraction and quantification. […]

`CCCCCCCCCCCCOS(=O)(=O)[O-].[Na+]` [SDS, sodium dodecyl sulphate]: in data set [1] (SDS at a dose up to 100 mg/kg), the “effect on acidic water leachable PFAS in biosolids amended soil” value was “did not significantly increase”. Also, the “effect on chlorophyll content in timothy-grass” value in data set [2] was “did not change the chlorophyll content”. In data set [3] (SDS 100 mg/kg, Day-40, exceptions PFOA and PFOS), the “effect on uptake of PFAS by the shoots” value is listed as “significantly higher uptake of PFAS”. In addition, in data set [3] (SDS, all three doses (10, 50, 100 mg/kg), Day-80), the “effect on ΣPFAS uptake by the shoots” value is recorded as “significantly higher PFAS uptake”. Take `O=C(O)C(F)(F)C(F)(F)C(F)(F)C(F)(F)C(F)(F)C(F)(F)C(F)(F)F` [PFOA, perfluorooctanoic acid]: the “percentage of SPLP leachable PFAS in biosolids amended soil” value (shortened to “percentage of SPLP leachable PFAS”) in data set [1] was about 100%.

For the compound `O=C(O)C(F)(F)C(F)(F)C(F)(F)C(F)(F)C(F)(F)F` [PFHxA, perfluorohexanoic acid], the “percentage of SPLP leachable PFAS” value in data set [1] was about 100%. In the case of `O=C(O)C(F)(F)C(F)(F)C(F)(F)C(F)(F)C(F)(F)C(F)(F)F` [PFHpA, perfluoroheptanoic acid], the “percentage of SPLP leachable PFAS” value in data set [1] is about 100%.
